Measured values taken from ChEMBL document CHEMBL4354836, “Heterotrimeric G Proteins as Therapeutic Targets in Drug Discovery” (J Med Chem, 2020).
Bridge positions count the residues as written; N and C are the ends. Square brackets hold non-standard residues; d marks the D form. Peptide text beside a SMILES is read from it. Leu(3R-O(AcLeu(3R-OH))) = CC(=O)N[C@H](C(=O)O[C@H](C(C)C)[C@H](N)C(=O)O)[C@H](O)C(C)C; NMeT = CN[C@H](C(=O)O)[C@@H](C)O; dPhLac = O=C(O)[C@H](O)Cc1ccccc1; NMeA = CN[C@@H](C)C(=O)O; NMeDha = C=C(NC)C(=O)O

What was measured:
[1] = target: Guanine nucleotide-binding protein G(I)/G(S)/G(T) subunit beta-1/gamma-2 (Homo sapiens, UniProt P59768+P62873); experiment: Inhibition of G-protein beta1gamma2 (unknown origin) by flow cytometry; type: protein-complex assay
Chain of Guanine nucleotide-binding protein G(I)/G(S)/G(T) subunit beta-1/gamma-2 (P59768 2-71 limits assumed): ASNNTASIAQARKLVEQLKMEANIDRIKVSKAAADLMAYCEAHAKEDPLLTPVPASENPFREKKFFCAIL
Chain of Guanine nucleotide-binding protein G(I)/G(S)/G(T) subunit beta-1/gamma-2 (P62873 2-340 limits assumed): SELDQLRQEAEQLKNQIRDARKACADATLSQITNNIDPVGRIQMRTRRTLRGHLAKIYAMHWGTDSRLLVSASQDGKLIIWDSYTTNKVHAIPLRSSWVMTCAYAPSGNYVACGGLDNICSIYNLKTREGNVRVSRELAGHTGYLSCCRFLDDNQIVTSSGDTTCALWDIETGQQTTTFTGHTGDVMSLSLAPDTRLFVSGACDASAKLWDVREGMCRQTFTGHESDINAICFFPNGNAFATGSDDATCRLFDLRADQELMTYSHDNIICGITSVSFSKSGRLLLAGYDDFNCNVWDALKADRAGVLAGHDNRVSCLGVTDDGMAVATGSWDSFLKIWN

[2] = target: T1, GNAQ/GNA11 (Homo sapiens, UniProt P50148+P29992); experiment: Inhibition of G-alphaq/11 in human platelet rich plasma assessed as inhibition of ADP-mediated calcium ion mobilization
T1 sequence (P50148 whole entry): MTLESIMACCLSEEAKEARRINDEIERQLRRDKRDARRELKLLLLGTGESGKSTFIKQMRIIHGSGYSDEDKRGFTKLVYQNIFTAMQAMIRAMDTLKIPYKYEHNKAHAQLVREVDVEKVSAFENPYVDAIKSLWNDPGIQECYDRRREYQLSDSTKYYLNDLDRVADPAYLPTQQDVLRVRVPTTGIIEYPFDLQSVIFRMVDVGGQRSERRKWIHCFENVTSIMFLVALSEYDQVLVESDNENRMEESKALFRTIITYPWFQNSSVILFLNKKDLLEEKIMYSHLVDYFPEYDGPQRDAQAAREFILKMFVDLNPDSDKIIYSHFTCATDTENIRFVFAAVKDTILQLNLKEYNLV
T1 sequence (P29992 whole entry): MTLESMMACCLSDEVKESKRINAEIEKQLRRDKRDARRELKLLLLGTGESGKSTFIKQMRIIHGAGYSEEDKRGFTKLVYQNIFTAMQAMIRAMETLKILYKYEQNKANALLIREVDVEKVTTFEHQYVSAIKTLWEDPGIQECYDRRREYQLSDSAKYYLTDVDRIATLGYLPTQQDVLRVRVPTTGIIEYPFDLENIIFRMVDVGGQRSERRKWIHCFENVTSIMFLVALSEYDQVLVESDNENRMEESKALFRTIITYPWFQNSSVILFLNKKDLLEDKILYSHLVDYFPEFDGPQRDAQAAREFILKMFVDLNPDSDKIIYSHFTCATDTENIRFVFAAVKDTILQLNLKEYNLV

[3] = target: T1, GNAQ/GNA11; experiment: Inhibition of G-alphaq/11 in human platelet rich plasma assessed as inhibition of ADP-mediated platelet aggregation
[4] = Inhibition of recombinant G-alpha subunit (unknown origin) assessed as inhibition of GDP release; set-up: species or system Homo sapiens

SMILES | IC50 [1] [µM] | also measured
O=C(O)C1CCCCC1c1c2ccc(=O)cc-2oc2cc(O)ccc12 (configuration not stated) | > 300 | –
O=C(O)C1CC23C(Cl)C(Cl)=C(Cl)C(Cl)C2(CC1c1c2ccc(=O)c(O)c-2oc2c(O)c(O)ccc12)C3(Cl)Cl (configuration not stated) | 0.25 | –
O=C1OC2(c3ccccc31)c1ccc(O)c(O)c1Oc1c2ccc(O)c1O | 0.2 | –
O=C(O)C1CCCCC1c1c2ccc(=O)c(O)c-2oc2c(O)c(O)ccc12 (configuration not stated) | 0.2 | –
C=C1C(=O)N[C@@H](C)C(=O)N(C)[C@@H](C)C(=O)N[C@@H]([C@H](OC(=O)[C@@H](NC(C)=O)[C@H](O)C(C)C)C(C)C)C(=O)N(C)[C@@H]([C@@H](C)OC)C(=O)O[C@H](C)[C@H](NC(C)=O)C(=O)O[C@H](Cc2ccccc2)C(=O)N1C (Ac-T[dPhLac][NMeDha]A[NMeA][Leu(3R-O(AcLeu(3R-OH)))][NMeT](Me); ester 1-C) | – | IC50 [2]: 0.1 to 1 µM; IC50 [3]: 0.1 to 1 µM
Cc1ccc(C(=O)Nc2ccc(S(=O)(=O)O)c3cc(S(=O)(=O)O)cc(S(=O)(=O)O)c23)cc1NC(=O)c1cccc(NC(=O)Nc2cccc(C(=O)Nc3cc(C(=O)Nc4ccc(S(=O)(=O)O)c5cc(S(=O)(=O)O)cc(S(=O)(=O)O)c45)ccc3C)c2)c1 [SURAMIN] | – | IC50 [4]: 0.24 µM
